Laboratory results from ChEMBL document CHEMBL1275534, “Is 60 days of ciprofloxacin administration necessary for postexposure prophylaxis for Bacillus anthracis?” (Antimicrob Agents Chemother, 2008).
≈ marks a conversion by molar mass, not a printed value.

How the values were obtained:
Bacillus anthracis [1] = experiment: Effect on growth of pX01 and pX02 deficient Bacillus anthracis delta-Sterne infected in hollow-fiber pharmacodynamic model assessed as maximal vegetative plus spore phase population size at 500 mg every 12 hrs; assay type: functional
Bacillus anthracis [2] = experiment: Antibacterial activity against pX01 and pX02 deficient Bacillus anthracis delta-Sterne after 24 hrs; assay type: functional

O=C(O)c1cn(C2CC2)c2cc(N3CCNCC3)c(F)cc2c1=O [CIPROFLOXACIN]
log10CFU/ml (Bacillus anthracis [1]): 554300000 | MBC (Bacillus anthracis [2]): 1 µg/mL (≈ 3.02 µM)
